Measurements from patent US20030073850A1, “4-Imidazole derivatives of benzyl and restricted benzyl sulfonamides, sulfamides, ureas, carbamates, and amides and their use” (priority 1998, published 2003).

Columns and labels:
[1] = target: T1, α1b (hamster receptor expressed in mouse fibroblasts) (Mesocricetus auratus, UniProt P18841); experiment: Radioligand binding, [3H]-prazosin, α1b
T1 construct: expressed in transfected cells; host or cells: mouse fibroblasts
T1 sequence (P18841 1-515): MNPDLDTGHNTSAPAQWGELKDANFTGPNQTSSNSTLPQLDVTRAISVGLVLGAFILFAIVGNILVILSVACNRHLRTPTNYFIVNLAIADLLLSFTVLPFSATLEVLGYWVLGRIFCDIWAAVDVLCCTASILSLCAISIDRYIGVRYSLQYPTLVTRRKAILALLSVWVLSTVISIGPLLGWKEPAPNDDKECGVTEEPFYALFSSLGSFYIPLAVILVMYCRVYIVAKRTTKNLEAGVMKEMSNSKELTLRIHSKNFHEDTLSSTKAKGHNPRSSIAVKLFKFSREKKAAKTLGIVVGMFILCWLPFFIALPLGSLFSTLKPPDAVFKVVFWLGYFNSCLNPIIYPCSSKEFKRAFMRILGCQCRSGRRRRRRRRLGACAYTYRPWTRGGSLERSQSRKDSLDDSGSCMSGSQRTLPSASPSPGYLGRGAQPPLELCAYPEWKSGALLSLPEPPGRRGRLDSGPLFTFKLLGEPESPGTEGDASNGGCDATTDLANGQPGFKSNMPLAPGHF
Procedure, shortened: (§1)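 [3H]-prazosin radioligand displacement; α1A from rat submaxillary gland tissue, α1b hamster and α1d rat receptors each expressed in mouse fibroblasts.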

[2] = target: T2, α1d (rat receptor expressed in mouse fibroblasts) (Rattus norvegicus, UniProt P23944); experiment: Radioligand binding, [3H]-prazosin, α1d
T2 construct: expressed in transfected cells; host or cells: mouse fibroblasts
T2 sequence (P23944 1-561): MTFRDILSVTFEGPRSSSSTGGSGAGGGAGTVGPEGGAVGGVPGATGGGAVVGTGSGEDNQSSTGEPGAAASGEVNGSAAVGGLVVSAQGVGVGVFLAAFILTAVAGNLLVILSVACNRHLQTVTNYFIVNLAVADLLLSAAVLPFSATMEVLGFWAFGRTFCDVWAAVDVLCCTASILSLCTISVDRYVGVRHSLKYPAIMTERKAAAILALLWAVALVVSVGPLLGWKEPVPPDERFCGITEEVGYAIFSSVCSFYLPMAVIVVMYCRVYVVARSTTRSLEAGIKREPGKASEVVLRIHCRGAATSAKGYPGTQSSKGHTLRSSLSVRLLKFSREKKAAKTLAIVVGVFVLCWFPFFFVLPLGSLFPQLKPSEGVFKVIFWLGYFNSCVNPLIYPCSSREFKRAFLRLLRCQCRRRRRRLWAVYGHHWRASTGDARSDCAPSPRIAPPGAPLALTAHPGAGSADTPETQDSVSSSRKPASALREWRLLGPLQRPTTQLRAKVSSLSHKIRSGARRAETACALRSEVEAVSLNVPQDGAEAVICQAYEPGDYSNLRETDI
Procedure, shortened: as §1

α1B (rat spleen) = target: T3, α1B (rat spleen) (Rattus norvegicus, UniProt P15823); experiment: Agonist tissue response, contraction of rat spleen; type: biochemical; conditions: read-out: Agonist Tissue Response (pD2) α1B (rat spleen) (converted)
T3 construct: α1B (rat spleen) and α1D (rat aorta) receptors; from tissue; host or cells: rat spleen
T3 sequence (P15823 1-515): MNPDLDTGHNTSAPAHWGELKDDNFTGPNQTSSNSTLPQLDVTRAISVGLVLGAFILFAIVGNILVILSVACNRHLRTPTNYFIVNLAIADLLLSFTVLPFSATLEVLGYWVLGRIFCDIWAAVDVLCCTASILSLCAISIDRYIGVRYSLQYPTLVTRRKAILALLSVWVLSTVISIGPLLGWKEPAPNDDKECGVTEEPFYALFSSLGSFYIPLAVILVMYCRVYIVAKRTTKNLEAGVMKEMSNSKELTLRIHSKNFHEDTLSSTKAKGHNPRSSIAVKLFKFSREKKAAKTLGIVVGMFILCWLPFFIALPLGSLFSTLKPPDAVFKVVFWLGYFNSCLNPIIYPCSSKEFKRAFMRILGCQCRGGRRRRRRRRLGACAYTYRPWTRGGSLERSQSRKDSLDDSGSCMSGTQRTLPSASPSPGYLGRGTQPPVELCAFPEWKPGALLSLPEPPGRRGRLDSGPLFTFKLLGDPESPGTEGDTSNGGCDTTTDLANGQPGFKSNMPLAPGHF

anesthetized dogs = experiment: Urethral pressure profile in anesthetized dogs; type: in vivo, dog; conditions: increasing iv doses, FIG. 1
Procedure: Dogs instrumented and anesthetized as decribed above were placed in left lateral recumbency and a dual pressure sensor catheter (SPC-771, Millar Instruments, Houston, Tex.) was inserted into the urethra and advanced into the bladder. The proximal pressure sensor was interfaced to a M12 computerized data acquisition system for the measurement of lower urinary tract pressures. At a resting intravesical pressure of approximately 5 cm of H2O, urethral pressure was measured from the sensor as the catheter was withdrawn using a modified syringe pump (Model 22, Harvard Apparatus, South Natick, Mass.) at its maximal rate of 0.83 mm/sec. Measurement from the proximal sensor allowed easy reinsertion as the distal 5 cm of the catheter remains in the urethra after the total profile has been obtained. Three resting urethral pressure profiles were obtained at 5 minute intervals before dosing, then a single profile was initiated 30 sec after each increasing iv dose during the time corresponding to the maximum arterial pressure effects of that dose. The increase in arterial pressure seen after each agonist dose was allowed to return to baseline before the next dose was given.

With `CCS(=O)(=O)Nc1cccc(C(=C2CCCCC2)c2c[nH]cn2)c1` [Example 56] the Ki [1] was 16.1 nM, the Ki [2] was 2.46 nM and the EC50 (α1B (rat spleen)) was 186000 nM.
With `CS(=O)(=O)Nc1cccc2c1CCCC2c1c[nH]cn1.Cl` (centres unmarked) [Example 8, N-[5-(1H-imidazol-4-yl)-5,6,7,8-tetrahydro-1-naphthalenyl]methanesulfonamide, Hydrochloride] the urethral pressure profile (anesthetized dogs) was “corresponding increases in the urethral pressure” and the melting point was 113 to 114 °C.
